Some test systems named below: CCRF-CEM leukemia; LOX IMVI melanoma; EKVX NSCLC; SF-295 CNS; UO-31 renal; KM12 colon; SK-MEL-28 melanoma; OVCAR-8 ovarian; 786-0 renal; OVCAR-4 ovarian.
Holding throughout (assay): NCI tumour cell line growth inhibition, 48 h

“And” between values parts separate entries of the source, which are not always exact repeats. Equal values may be shown once.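 Exposure lasted 48 hours, with cells grown in 96-well plates and compounds tested at five concentrations. The concentration for 50% growth inhibition is given as GI50. TGI marks complete inhibition of growth.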 Bounds are passed on as bounds.

In the case of `CCNc1nnc(CSc2nc(-c3ccccc3)c(-c3ccccc3)[nH]2)s1`, the TGI was 40.3 µM with CCRF-CEM leukemia; 31.1 µM with LOX IMVI melanoma; 44.4 µM in the experiment with EKVX NSCLC; 34.1 µM in the experiment with SF-295 CNS; 29.5 µM in the experiment on UO-31 renal; 23.9 µM in the experiment on KM12 colon. Further, the TGI with SK-MEL-28 melanoma was 36.1 µM; in the experiment with OVCAR-8 ovarian, 30 µM; in the experiment on 786-0 renal it was 56.6 µM; in the experiment with OVCAR-4 ovarian, above 100 µM.
As for `COc1cccc(N2C(=O)c3c(c4[nH]c5ccccc5c4c4ccc(C(C)(C)C)cc34)C2=O)c1`, the TGI in the experiment on CCRF-CEM leukemia, in the experiment on LOX IMVI melanoma, in the experiment with EKVX NSCLC, with SF-295 CNS, in the experiment with UO-31 renal and with KM12 colon was above 100 µM in each case. Also, the TGI with SK-MEL-28 melanoma, in the experiment on OVCAR-8 ovarian, in the experiment with 786-0 renal and in the experiment with OVCAR-4 ovarian was above 100 µM throughout.
Turning to `CC[C@@H]1C[C@@H]2CN3CCc4c([nH]c5ccc(OC)cc45)C(COC(=O)c4ccc(OC)c(OC)c4)(C2)C13`, the TGI with CCRF-CEM leukemia is 95.7 µM; in the experiment with LOX IMVI melanoma it was 27.6 µM; in the experiment on EKVX NSCLC, above 100 µM; in the experiment with SF-295 CNS it was 70.6 µM; in the experiment on UO-31 renal, 98.8 µM; in the experiment with KM12 colon, above 100 µM. Also, the TGI in the experiment on SK-MEL-28 melanoma, in the experiment with OVCAR-8 ovarian, with 786-0 renal and in the experiment with OVCAR-4 ovarian was above 100 µM in each case.
As to `Nc1c(C(=O)Nc2ccccc2)sc2nc3c(cc12)CCCCCC3`, the GI50 in the experiment with CCRF-CEM leukemia is 0.345 µM; with LOX IMVI melanoma it was 0.772 µM; with EKVX NSCLC, 0.591 µM; with SF-295 CNS it was 0.291 µM; in the experiment with UO-31 renal, 0.945 µM; with KM12 colon, 0.398 µM. Moreover, the GI50 in the experiment with SK-MEL-28 melanoma is 1.1 µM; in the experiment with OVCAR-8 ovarian it was 0.478 µM; in the experiment on 786-0 renal it was 0.551 µM; in the experiment on OVCAR-4 ovarian, 1.11 µM. In addition, the TGI in the experiment on CCRF-CEM leukemia is above 100 µM; in the experiment on LOX IMVI melanoma, above 49.4 µM; in the experiment with EKVX NSCLC, 25.2 µM; in the experiment with SF-295 CNS it was 1.69 µM; with UO-31 renal, 11.9 µM; with KM12 colon, 17.6 µM. Moreover, the TGI in the experiment on SK-MEL-28 melanoma came out at 21.8 µM; with OVCAR-8 ovarian, 16.7 µM; in the experiment on 786-0 renal it was 3.93 µM; with OVCAR-4 ovarian, 15.7 µM.
As to `CS(=O)(=O)c1ccc(Oc2cc(F)cc(C#N)c2)c2c1[C@H](O)[C@H](F)[C@@H]2F`, the GI50 in the experiment with CCRF-CEM leukemia, in the experiment with LOX IMVI melanoma, in the experiment on EKVX NSCLC, in the experiment on SF-295 CNS, in the experiment on UO-31 renal and with KM12 colon was above 100 µM in each case. The GI50 in the experiment on SK-MEL-28 melanoma, with OVCAR-8 ovarian, in the experiment on 786-0 renal and in the experiment on OVCAR-4 ovarian was above 100 µM throughout. The TGI in the experiment with CCRF-CEM leukemia, in the experiment with LOX IMVI melanoma, in the experiment on EKVX NSCLC, with SF-295 CNS, in the experiment on UO-31 renal and with KM12 colon was above 100 µM throughout. Also, the TGI in the experiment with SK-MEL-28 melanoma, in the experiment with OVCAR-8 ovarian, in the experiment on 786-0 renal and in the experiment on OVCAR-4 ovarian was above 100 µM each time.
In the case of `CCNC(=O)C[C@@H]1N=C(c2ccc(Cl)cc2)c2cc(OC)ccc2-n2c(C)nnc21`, the GI50 was 7.44 µM in the experiment with CCRF-CEM leukemia; 0.844 µM with LOX IMVI melanoma; above 100 µM in the experiment with EKVX NSCLC; 0.659 µM in the experiment with UO-31 renal; 27.1 µM with KM12 colon; 11.2 µM with SK-MEL-28 melanoma. Moreover, the GI50 is 8.9 µM in the experiment on OVCAR-8 ovarian, 16.4 µM with 786-0 renal and 5.93 µM in the experiment on OVCAR-4 ovarian. The TGI in the experiment with CCRF-CEM leukemia, in the experiment on LOX IMVI melanoma, in the experiment with EKVX NSCLC, in the experiment with SF-295 CNS, in the experiment on UO-31 renal and in the experiment with KM12 colon was above 100 µM in each case. The TGI with SK-MEL-28 melanoma, with OVCAR-8 ovarian, in the experiment on 786-0 renal and with OVCAR-4 ovarian was above 100 µM in each case.
Take `CC(C)(C)[Si](C)(C)OCC1CCC(n2cnc3c(NC(=O)c4ccccc4)ncnc32)O1` (centres undefined): the TGI with CCRF-CEM leukemia came out at 47.1 µM; in the experiment on LOX IMVI melanoma, 37.1 µM; in the experiment on EKVX NSCLC it was 32.6 µM; in the experiment with SF-295 CNS it was 35.8 µM; with UO-31 renal, 3.16 µM; with KM12 colon, 31.3 µM. The TGI was found to be 27.9 µM with SK-MEL-28 melanoma, 60.2 µM with OVCAR-8 ovarian, 31.3 µM in the experiment with 786-0 renal and 39.5 µM with OVCAR-4 ovarian.
On to `COc1cc(/C=C(/C)[N+](=O)[O-])ccc1O`, for which the GI50 with CCRF-CEM leukemia was 1.85 µM; with LOX IMVI melanoma, 1.59 µM and 1.58 µM; with EKVX NSCLC it was 6.55 µM and 2.84 µM; in the experiment with SF-295 CNS, 9.45 µM and 2.77 µM; in the experiment on UO-31 renal it was 1.53 µM and 1.41 µM; with KM12 colon, 2.97 µM and 1.93 µM. The GI50 was 1.81 µM and 1.87 µM in the experiment on SK-MEL-28 melanoma; 2.86 µM and 2.73 µM in the experiment on OVCAR-8 ovarian; 1.79 µM and 1.94 µM in the experiment on 786-0 renal; 2.62 µM and 1.69 µM in the experiment with OVCAR-4 ovarian. Further, the TGI in the experiment on CCRF-CEM leukemia was 4.91 µM; in the experiment on LOX IMVI melanoma it was 3.27 µM and 3 µM; with EKVX NSCLC it was 18.7 µM and 14.6 µM; with SF-295 CNS, 22.4 µM and 8.89 µM; in the experiment on UO-31 renal, 3.19 µM and 3.39 µM; with KM12 colon, 7.52 µM and 3.75 µM. Further, the TGI with SK-MEL-28 melanoma was 3.87 µM and 3.88 µM; in the experiment with OVCAR-8 ovarian it was 9.5 µM and 7.93 µM; with 786-0 renal it was 3.26 µM and 3.51 µM; with OVCAR-4 ovarian it was 7.6 µM and 3.18 µM.
As to `C=C1C(=O)O[C@H]2[C@H]1CC/C(COC(=O)C(=O)c1c[nH]c3ccccc13)=C\CC[C@@]1(C)O[C@@H]21`, the GI50 with CCRF-CEM leukemia was 1.27 µM; with LOX IMVI melanoma it was 1.48 µM; with EKVX NSCLC it was 8.31 µM; in the experiment with SF-295 CNS it was 11.8 µM; in the experiment with UO-31 renal, 1.84 µM; in the experiment with KM12 colon, 3.28 µM. In addition, the GI50 in the experiment with SK-MEL-28 melanoma is 2.02 µM; in the experiment on OVCAR-8 ovarian it was 3.14 µM; with 786-0 renal, 1.84 µM; in the experiment with OVCAR-4 ovarian it was 5.18 µM. Besides, the TGI with CCRF-CEM leukemia was 13.1 µM; in the experiment on LOX IMVI melanoma, 3.04 µM; in the experiment on EKVX NSCLC it was 20.7 µM; with SF-295 CNS it was 24.9 µM; in the experiment with UO-31 renal it was 3.58 µM; in the experiment with KM12 colon, 13.4 µM. The TGI in the experiment on SK-MEL-28 melanoma amounted to 4.23 µM; in the experiment on OVCAR-8 ovarian it was 12.7 µM; with 786-0 renal it was 3.72 µM; in the experiment with OVCAR-4 ovarian it was 25.9 µM.

These data come from PubChem BioAssay (NCI).
